Results: ChEMBL document CHEMBL1148818, “1,2,4-triazol-3-yl-thiopropyl-tetrahydrobenzazepines: a series of potent and selective dopamine D(3) receptor antagonists” (J Med Chem, 2007)

Assays:
[1] = in vivo; settings: Sprague-Dawley, rat
[2] = in vivo; settings: Sprague-Dawley, rat, whole blood
[3] = in vivo; settings: Sprague-Dawley, rat; remark: listed apart in the source
[4] = in vitro; settings: human, liver microsomes

SMILES	Vd [1]	clearance [2]	bioavailability [3]	CLint scaled [4]
Cc1ccc2c(-c3nnc(SCCCN4CCc5ccc(-c6cc(C)on6)cc5CC4)n3C)cccc2n1	3.4 L/kg	38 mL/min/kg	24%	–
Cc1ccc2c(-c3nnc(SCCCN4CCc5ccc(-c6ncc(C)o6)cc5CC4)n3C)cccc2n1	7.9 L/kg	59 mL/min/kg	27%	4.7 mL/min/g
Cc1cnc(-c2ccc3c(c2)CCN(CCCSc2nnc(-c4cccn4C)n2C)CC3)o1	–	–	–	6.4 mL/min/g
